We go through three molecules from patent US20230265151A1, “GIP/GLP1 CO-AGONIST COMPOUNDS” (priority 2020, published 2023).

Assay type in all cases: cell-based
For one assay, the target named is T1, hGIPR (Homo sapiens, UniProt P48546).
T1 construct: expressed in transfected cells
T1 sequence (P48546 22-466): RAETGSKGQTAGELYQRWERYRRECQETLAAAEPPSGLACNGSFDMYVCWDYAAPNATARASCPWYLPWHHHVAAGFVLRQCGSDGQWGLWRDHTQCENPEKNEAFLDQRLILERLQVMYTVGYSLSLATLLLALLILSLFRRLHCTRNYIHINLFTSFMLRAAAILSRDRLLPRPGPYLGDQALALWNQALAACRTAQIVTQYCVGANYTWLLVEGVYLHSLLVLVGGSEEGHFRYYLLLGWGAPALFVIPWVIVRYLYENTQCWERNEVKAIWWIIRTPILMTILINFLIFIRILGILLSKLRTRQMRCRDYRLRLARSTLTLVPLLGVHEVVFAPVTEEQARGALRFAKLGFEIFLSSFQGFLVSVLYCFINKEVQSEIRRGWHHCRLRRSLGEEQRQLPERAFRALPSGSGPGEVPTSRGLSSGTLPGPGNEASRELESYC
The assay is described as follows: Functional cAMP formation (HTRF) in HEK-293 clonal cells expressing hGIPR, 0.1% bovine casein, without or with 1.0% human serum albumin. The settings on record: for EC50: geometric mean. The method, boiled down: (§1)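 Cells were stimulated with peptide for 30 min at 37° C, then lysed in buffer carrying cAMP-d2 and anti-cAMP Eu3+-cryptate for a competitive HTRF read after at least 60 min at room temperature. The 665/620 nm ratio was converted to nM cAMP against a standard curve.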

Another assay has as its target hGLP-1R (Homo sapiens, UniProt P43220). Description: Functional cAMP formation (HTRF) in HEK-293 clonal cells expressing hGLP-1R, 0.1% bovine casein, without or with 1.0% human serum albumin. On the set-up: expressed in transfected cells. The settings on record: for EC50: geometric mean. The essentials:
as §1

In another assay the target is T2, hGCGR (Homo sapiens, UniProt P47871).
T2 construct: expressed in transfected cells
The assay is described as follows: Functional cAMP formation (HTRF) in HEK-293 clonal cells expressing hGCGR, 0.1% bovine casein, without or with 1.0% human serum albumin. The method, boiled down:
as §1

Read-outs that look alike come from different tables or passages of the source. *1 amine or outer side, *2 acyl side, *3 side chain or, on linkers, in order; H or OH if unused. Where a SMILES comes first, the peptide text is derived from it. Side-chain parts run from the residue outwards. [ ]: non-standard residue; d: D form. The star is where a group is joined. Decanoyl(10-(4-HOOC-PhO)) = O=C(O)c1ccc(OCCCCCCCCCC(=O)*)cc1; αMePhe(2-F) = C[C@](N)(Cc1ccccc1F)C(=O)O; γGlu = O=C(O)[C@H](CCC(=O)[*:2])N[*:1]; C14 diacid = O=C(O)CCCCCCCCCCCCC(=O)*; αMeY = C[C@](N)(Cc1ccc(O)cc1)C(=O)O; αMeL = CC(C)C[C@](C)(N)C(=O)O; Orn = NCCC[C@H](N)C(=O)O; AEEA = NCCOCCOCC(=O)O; Aib = CC(C)(N)C(=O)O

Chain of hGLP-1R (P43220 24-463): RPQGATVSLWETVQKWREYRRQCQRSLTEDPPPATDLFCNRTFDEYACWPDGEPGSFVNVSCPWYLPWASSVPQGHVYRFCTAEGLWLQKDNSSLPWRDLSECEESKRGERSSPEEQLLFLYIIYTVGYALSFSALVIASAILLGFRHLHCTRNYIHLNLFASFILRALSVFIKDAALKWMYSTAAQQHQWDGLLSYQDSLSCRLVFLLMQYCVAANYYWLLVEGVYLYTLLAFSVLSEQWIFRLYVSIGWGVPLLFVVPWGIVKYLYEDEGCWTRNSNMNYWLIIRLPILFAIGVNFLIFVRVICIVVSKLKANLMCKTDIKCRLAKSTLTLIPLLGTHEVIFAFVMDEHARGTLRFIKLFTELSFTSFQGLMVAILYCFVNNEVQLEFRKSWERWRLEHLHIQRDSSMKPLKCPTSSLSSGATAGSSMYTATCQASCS
T2 sequence (P47871 26-477): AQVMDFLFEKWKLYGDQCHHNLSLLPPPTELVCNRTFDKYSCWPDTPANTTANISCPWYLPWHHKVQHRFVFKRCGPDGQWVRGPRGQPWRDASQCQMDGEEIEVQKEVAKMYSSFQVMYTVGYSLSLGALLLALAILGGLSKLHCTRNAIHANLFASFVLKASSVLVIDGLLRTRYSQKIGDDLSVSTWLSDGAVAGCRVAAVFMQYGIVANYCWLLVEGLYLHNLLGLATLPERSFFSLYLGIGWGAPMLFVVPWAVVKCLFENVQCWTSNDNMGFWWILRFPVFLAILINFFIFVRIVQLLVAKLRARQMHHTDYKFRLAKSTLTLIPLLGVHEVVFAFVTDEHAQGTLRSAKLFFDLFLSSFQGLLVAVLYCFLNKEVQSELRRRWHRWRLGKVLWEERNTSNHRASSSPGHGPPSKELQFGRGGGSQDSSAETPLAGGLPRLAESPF

Consider `CC[C@H](C)[C@H](NC(=O)[C@H](CC(C)C)NC(=O)[C@](C)(Cc1ccc(O)cc1)NC(=O)[C@@H](CCC(=O)O)NC(=O)[C@@H](NC(=O)[C@H](Cc1ccccc1)NC(=O)[C@H](CCC(=O)O)NC(=O)C(C)(C)NC(=O)[C@H](CCC(N)=O)NC(=O)[C@H](C)NC(=O)[C@H](CCCCNC(=O)COCCOCCNC(=O)COCCOCCNC(=O)CC[C@H](NC(=O)CCCCCCCCCOc1ccc(C(=O)O)cc1)C(=O)O)NC(=O)[C@H](CCCN)NC(=O)[C@H](CC(=O)O)NC(=O)[C@H](CC(C)C)NC(=O)[C@](C)(CC(C)C)NC(=O)[C@@H](NC(=O)[C@H](CO)NC(=O)[C@H](Cc1ccc(OC)cc1)NC(=O)[C@H](CC(=O)O)NC(=O)[C@H](CO)NC(=O)[C@@H](NC(=O)[C@](C)(Cc1ccccc1F)NC(=O)[C@@H](NC(=O)CNC(=O)[C@H](CCC(=O)O)NC(=O)C(C)(C)NC(=O)[C@@H](N)Cc1ccc(O)cc1)[C@@H](C)O)[C@@H](C)O)[C@@H](C)CC)[C@@H](C)CC)C(=O)N[C@@H](CCCCNC(=O)COCCOCCNC(=O)COCCOCCNC(=O)CC[C@H](NC(=O)CCCCCCCCCOc1ccc(C(=O)O)cc1)C(=O)O)C(=O)NCC(=O)NCC(=O)N1CCC[C@H]1C(=O)N[C@@H](CO)C(=O)N[C@@H](CO)C(=O)NCC(=O)N[C@@H](C)C(=O)N1CCC[C@H]1C(=O)N1CCC[C@H]1C(=O)N1CCC[C@H]1C(=O)N[C@@H](CO)C(N)=O` [Example 278] (H-Y[Aib]EGT[αMePhe(2-F)]TSDY(Me)SI[αMeL]LD[Orn]K([AEEA-AEEA-γGlu-Decanoyl(10-(4-HOOC-PhO))])AQ[Aib]EFI[dE][αMeY]LIK([AEEA-AEEA-γGlu-Decanoyl(10-(4-HOOC-PhO))])GGPSSGAPPPS-NH2), for which the maximal effect (Emax) at hGIPR (HEK293, read-out: hGIPR Emax, % ± SEM, 0.1% bovine casein and 1.0% human serum albumin, 37° C., percent of maximal response to GIP(1-42)NH2) was 91.1%; on hGIPR (HEK293, read-out: hGIPR Emax, % ± SEM, cAMP, 37° C., 0.1% bovine casein, percent of maximal response to GIP(1-42)NH2, arithmetic mean), 105%; at hGLP-1R (HEK293, read-out: hGLP-1R Emax, % ± SEM, 0.1% bovine casein and 1.0% human serum albumin, 37° C., percent of maximal response to GLP-1(7-36)NH2), 121%; at hGLP-1R (HEK293, read-out: hGLP-1R Emax, % ± SEM, cAMP, 37° C., 0.1% bovine casein, percent of maximal response to GLP-1(7-36)NH2, arithmetic mean), 109%. Moreover, the concentration giving a half-maximal response (EC50) is 1.41 nM on hGIPR (hGIPR EC50, nM (SEM, n), 0.1% bovine casein and 1.0% human serum albumin, 37° C.); 27 nM at hGLP-1R (hGLP-1R EC50, nM (SEM, n), 0.1% bovine casein and 1.0% human serum albumin, 37° C.); more than 9950 nM on hGCGR (hGCGR EC50, nM (SEM, n), 0.1% bovine casein and 1.0% human serum albumin, 37° C., geometric mean); more than 9950 nM at hGCGR (hGCGR EC50, nM (SEM, n), cAMP, 37° C., 0.1% bovine casein (no human serum albumin), geometric mean).
For the molecule `CC[C@H](C)[C@H](NC(=O)[C@H](CCCN)NC(=O)[C@H](CC(=O)O)NC(=O)[C@H](CC(C)C)NC(=O)[C@](C)(CC(C)C)NC(=O)[C@@H](NC(=O)[C@H](CO)NC(=O)[C@H](CCCCNC(=O)COCCOCCNC(=O)COCCOCCNC(=O)CC[C@H](NC(=O)CCCCCCCCCCCCC(=O)O)C(=O)O)NC(=O)[C@H](CC(=O)O)NC(=O)[C@H](CO)NC(=O)[C@@H](NC(=O)[C@](C)(Cc1ccccc1F)NC(=O)[C@@H](NC(=O)CNC(=O)[C@H](CCC(=O)O)NC(=O)C(C)(C)NC(=O)[C@@H](N)Cc1ccc(O)cc1)[C@@H](C)O)[C@@H](C)O)[C@@H](C)CC)C(=O)N[C@@H](C)C(=O)N[C@@H](CCC(N)=O)C(=O)NC(C)(C)C(=O)N[C@@H](CCC(=O)O)C(=O)N[C@@H](Cc1ccccc1)C(=O)N[C@H](C(=O)N[C@H](CCC(=O)O)C(=O)N[C@@](C)(Cc1ccc(O)cc1)C(=O)N[C@@H](CC(C)C)C(=O)N[C@H](C(=O)N[C@@H](CCC(=O)O)C(=O)NCC(=O)NCC(=O)N[C@@H](CCCCNC(=O)COCCOCCNC(=O)COCCOCCNC(=O)CC[C@H](NC(=O)CCCCCCCCCCCCC(=O)O)C(=O)O)C(=O)N[C@@H](CO)C(=O)N[C@@H](CO)C(=O)NCC(=O)N[C@@H](C)C(=O)N1CCC[C@H]1C(=O)N1CCC[C@H]1C(=O)N1CCC[C@H]1C(=O)N[C@@H](CO)C(N)=O)[C@@H](C)CC)[C@@H](C)CC` [Example 108] (H-Y[Aib]EGT[αMePhe(2-F)]TSDK([AEEA-AEEA-γGlu-C14 diacid])SI[αMeL]LD[Orn]IAQ[Aib]EFI[dE][αMeY]LIEGGK([AEEA-AEEA-γGlu-C14 diacid])SSGAPPPS-NH2; N-terminus assumed), the Emax came to 85.2% at hGIPR (HEK293, percent of maximal response to GIP(1-42)NH2, 37° C., 0.1% bovine casein, arithmetic mean, read-out: hGIPR Emax, % ± SEM) and 97.6% on hGLP-1R (HEK293, percent of maximal response to GLP-1(7-36)NH2, 37° C., 0.1% bovine casein, arithmetic mean, read-out: hGLP-1R Emax, % ± SEM). Moreover, the EC50 on hGIPR (cAMP, incubated at 37° C., 0.1% bovine casein (no human serum albumin), read-out: hGIPR EC50, nM (SEM, n)) was 0.0249 nM; on hGCGR (cAMP, incubated at 37° C., 0.1% bovine casein (no human serum albumin), geometric mean, read-out: hGCGR EC50, nM (SEM, n)), more than 9950 nM.
With `CC[C@H](C)[C@H](NC(=O)[C@H](CC(C)C)NC(=O)[C@](C)(Cc1ccc(O)cc1)NC(=O)[C@@H](CCC(=O)O)NC(=O)[C@@H](NC(=O)[C@H](Cc1ccccc1)NC(=O)[C@H](CCC(=O)O)NC(=O)C(C)(C)NC(=O)[C@H](CCC(N)=O)NC(=O)[C@H](C)NC(=O)[C@H](CCCCNC(=O)COCCOCCNC(=O)COCCOCCNC(=O)CC[C@H](NC(=O)CCCCCCCCCCCCC(=O)O)C(=O)O)NC(=O)[C@H](CCCN)NC(=O)[C@H](CC(=O)O)NC(=O)[C@H](CC(C)C)NC(=O)[C@](C)(CC(C)C)NC(=O)[C@@H](NC(=O)C(C)(C)NC(=O)[C@@H](NC(=O)[C@H](CC(=O)O)NC(=O)[C@H](CO)NC(=O)[C@@H](NC(=O)[C@](C)(Cc1ccccc1F)NC(=O)[C@@H](NC(=O)CNC(=O)[C@H](CCC(=O)O)NC(=O)C(C)(C)NC(=O)[C@@H](N)Cc1ccc(O)cc1)[C@@H](C)O)[C@@H](C)O)C(C)C)[C@@H](C)CC)[C@@H](C)CC)C(=O)N[C@@H](CCCCNC(=O)COCCOCCNC(=O)COCCOCCNC(=O)CC[C@H](NC(=O)CCCCCCCCCCCCC(=O)O)C(=O)O)C(=O)NCC(=O)NCC(=O)N1CCC[C@H]1C(=O)N[C@@H](CO)C(=O)N[C@@H](CO)C(=O)NCC(=O)N[C@@H](C)C(=O)N1CCC[C@H]1C(=O)N1CCC[C@H]1C(=O)N1CCC[C@H]1C(=O)N[C@@H](CO)C(N)=O` [Example 325], the Emax on hGIPR (HEK293, cAMP, 37° C., 0.1% bovine casein and 1.0% human serum albumin, percent of maximal response to GIP(1-42)NH2, read-out: hGIPR Emax, % ± SEM) came out at 94.7%; at hGLP-1R (HEK293, cAMP, 37° C., 0.1% bovine casein, percent of maximal response to GLP-1(7-36)NH2, arithmetic mean, read-out: hGLP-1R Emax, % ± SEM) it was 97.8%. In addition, the EC50 on hGIPR (cAMP, 37° C., 0.1% bovine casein (no human serum albumin), read-out: hGIPR EC50, nM (SEM, n)) is 0.0485 nM; on hGLP-1R (cAMP, 37° C., 0.1% bovine casein (no human serum albumin), read-out: hGLP-1R EC50, nM (SEM, n)), 0.225 nM; at hGCGR (cAMP, 37° C., 0.1% bovine casein (no human serum albumin), geometric mean, read-out: hGCGR EC50, nM (SEM, n)) it was more than 9950 nM; on hGCGR (cAMP, 37° C., 0.1% bovine casein and 1.0% human serum albumin, geometric mean (SEM, n), read-out: hGCGR EC50, nM (SEM, n)), more than 9950 nM.
